Assay: Photoacoustic imaging test in aqueous solution
Format: physicochemical
Conditions: 5, 10, 20 and 40 μM in water
Protocol: In the experimental group, 2.5, 5, 10 and 20 μL of Compound II-1 (concentrations of 5, 10, 20 and 40 μM, respectively) were respectively added to 1 mL of water, and the test solution was placed in the prosthesis for photoacoustic imaging test.

## CCN1C(=CC=C2CCCC(C=CC3=C(C#N)C(=C(C#N)C#N)OC3(C)C)=C2Cl)C(C)(C)c2ccccc21 [II-1]
  photoacoustic signal against concentration: the photoacoustic signal increased with the increase of the concentration of Compound II-1
  wavelength of the strongest photoacoustic signal: 710-750 nm

Source: US20220105183A1, “MICRO-NANO STRUCTURE FORMED BY SELF-ASSEMBLING ORGANIC SMALL MOLECULE COMPOUND AND USE THEREOF” (Qingdao University of Science and Technology, priority 2018, published 2022)
